US5961978A, “Therapeutically useful peptides and peptide fragments” (Norsk Hydro, a.s., priority 1991, dated 1999)
Where no end group is shown, it is not given here.

How the values were obtained:
HLA-DQ = assay: Peptide inhibition study, clone E as indicator responder cell (binding of peptide 43 to HLA-DQ); format: cell-based, human; details: FIG. 7; 5 μmolar peptide 43, 250 μmolar inhibitory peptide
Description: Conditions are otherwise as described in FIG. 4.
Five μmolar concentration of stimulatory peptide (peptide 43) and 250 μmolar of the inhibitory peptides were used. Conditions were otherwise as described in FIG. 4. Note: Peptide 65 and 81 are non-stimulatory in a concentration of 10 μmolar (FIG. 6), but are stimulatory in a concentration of 250 μmolar.
In order to map peptide binding to HLA-DR and HLA-DQ, we tested the non-stimulatory p21 ras peptides for capacity to inhibit the binding of peptide 42 to HLA-DR, using stimulation of clone I as indicator system, and inhibition of peptide 43 binding to HLA-DQ using stimulation of clone E as an indicator system.

DR1 = format: binding, human; details: indicator iodinated P34, tested 0,33-10 μM
DQw6 = assay: Inhibition of binding of iodinated indicator peptide P104 to affinity purified HLA DQw6; set-up: species or system human; details: tested 0,33-10 μM
T cell clone F = assay: T cell proliferation assay, clone F; format: cell-based, human; details: for stimulation of clone F by truncated forms of peptide 45: 10 μmolar
Experimental: (§1) FIG. 2 and FIGS. 2a-2e show the specificity of the T cell clones I, B, E and F in T cell proliferation assays. Assays were set up in triplicate in 96 well plates, with the five peptides present in the original peptide mixture as stimulating antigens. The wells contained 50000 irradiated (8000 R) autologous EBV transformed B cells as antigen presenting cells (APC).
(§2) Cultures were incubated for 2 days at 37° C. in a 5% CO2 incubator, and pulsed overnight with 1 μCi of ^3 H-thymidine (Amersham, England) per well before harvesting onto glass fibre filters by an automated cell harvester (Scatron, Lierbyen, Norway). Thymidine incorporation into DNA was quantitated by liquid scintillation counting using an LKB 1205 Betaplate Liquid Scintillation counter. Data are given as medians of triplicate cultures. Controls included T cell clones cultured alone, or with APC in the absence of peptides. The panels are scaled according to the magnitude of the positive response.
The conditions of the assay were exactly as described in FIG. 6.
The peptide concentration was as given in the Figure, and the conditions of the assay were otherwise as described for FIG. 6.

T cell clone E = assay: T cell proliferation assay, clone E; format: cell-based, human
Experimental: as §1, §2
The conditions of the assay were as described in FIG. 2. […]

AGVVGKSALAL [compound 68, N-terminally truncated form of peptide 43]
inhibition of clone E response to peptide 43 by truncated peptides (HLA-DQ): inhibit

GAGVVGKSALAL [compound 67, N-terminally truncated form of peptide 43]
inhibition of clone E response to peptide 43 by truncated peptides (HLA-DQ): inhibit

P104: printed Y----------- (SEQ ID NO. 93); iodinated P104 was the indicator peptide for binding to DQw6 (YVVVGAAGVGKSA; also: iodinated) [reference compound]
IC50 (DR1): 0.78 µM | IC50 (DQw6): < 0.33 µM

VGAGVVGKSALAL [compound 66, N-terminally truncated form of peptide 43]
inhibition of clone E response to peptide 43 by truncated peptides (HLA-DQ): inhibit

VVGAAGVGKS [P88]
dose-response of clone F, potency compared to peptide 45 (T cell clone F; FIG. 16): far less potent | IC50 (DQw6): 8.97 µM

VVGAAGVGKSA [p90]
IC50 (DQw6): 9.98 µM

VVGAAGVGKSALAL [compound 70, N-terminally truncated form of peptide 45]
stimulation of clone F by truncated forms of peptide 45 (T cell clone F): stimulate

VVGAGVVGKSALAL [compound 65, N-terminally truncated form of peptide 43]
stimulation of clone E by truncated forms of peptide 43 (T cell clone E; 10 μmolar): non-stimulatory | stimulation of clone E by truncated forms of peptide 43 (T cell clone E; 250 μmolar): become stimulatory | stimulation of clone E by truncated forms of peptide 43 (T cell clone E; 250 μmolar, listed as Peptide 65): stimulatory

VVVGAAGVGKS [P89]
IC50 (DQw6): 10 µM

VVVGAAGVGKSA [p91]
IC50 (DQw6): 1.29 µM

VVVGAAGVGKSALAL [compound 69, N-terminally truncated form of peptide 45]
stimulation of clone F by truncated forms of peptide 45 (T cell clone F): stimulate

VVVGAGVVGKSALAL [compound 64, N-terminally truncated form of peptide 43]
stimulation of clone E by truncated forms of peptide 43 (T cell clone E; 10 μmolar): stimulate
